Common to all, as to format: cell-based
The target in assay [1] is T1, PAR2 (HT-29 cells) (Homo sapiens, UniProt P55085).
T1 construct: host or cells: HT-29
T1 sequence (P55085 26-397): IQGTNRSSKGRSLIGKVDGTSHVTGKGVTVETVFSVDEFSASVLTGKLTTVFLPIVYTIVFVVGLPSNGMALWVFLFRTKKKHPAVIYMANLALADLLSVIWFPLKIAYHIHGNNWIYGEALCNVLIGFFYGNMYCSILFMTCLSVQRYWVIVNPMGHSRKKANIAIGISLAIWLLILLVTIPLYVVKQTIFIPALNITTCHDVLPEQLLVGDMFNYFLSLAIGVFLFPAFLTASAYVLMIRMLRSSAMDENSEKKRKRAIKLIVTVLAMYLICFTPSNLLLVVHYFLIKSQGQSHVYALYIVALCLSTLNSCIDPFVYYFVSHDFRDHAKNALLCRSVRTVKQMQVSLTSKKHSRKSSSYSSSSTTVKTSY
Put plainly: Ca FLIPR TETRA assay, ANTAGONIST mode, activator 8 μM SLIGKV. As to conditions: for pIC50: HT-29 cells, activator 8 μM SLIGKV, maximal antagonist concentration per Method (A: 0.1, 1 or 2 μM; B: 50 μM); for SLIGKV, % @ 50: @ 50 (μM). As for the experimental part: (§1) Protocol for Testing PAR2 Compounds in ANTAGONIST Mode Using the Ca FLIPR^TETRA Assay (384 Well).
(§2) 23000 HT-29 cells (ATCC# HTB-38) were plated in 384-well black, transparent-flat bottom plates and incubated in 25 uL of 1% FBS/McCoy's media ON at 37° C. under an atmosphere of 5% CO2. The following day, 25 uL FLIPR calcium 5 Molecular Devices assay reagent (Cat: R-8186) was added. Plates were incubated at 37° C. and r. t. for 45 min and 15 min, respectively. Compounds dilutions were prepared in 100% DMSO using a Biomek FX and diluted 20-fold in HBSS and then 5.5 uL was added directly to the cells by the FLIPR^TETRA (10× dilution) using FLIPR Tetra Pipette tips, black, non-sterile, 384 Molecular Devices (Cat: 9000-0764).
(§3) A first read was performed to determine whether the test compounds on their own can activate Ca^2+ responses. The cells were incubated with the compounds for 30 min at r. t. and then read in ANTAGONIST mode in the same plate by stimulating with 6.2 uL of a fixed concentration of the activator: final concentrations 8 μM SLIGKV, 1 U/mL Thrombin, 3.1 U/mL trypsin, or 0.6 μM UTP.

For assay [2], the target named is T1, PAR2 (HT-29 cells). The assay can be described thus: Ca FLIPR TETRA assay, ANTAGONIST mode, activator 3.1 U/mL trypsin. The following applies: for pIC50: HT-29 cells, activator 3.1 U/mL trypsin, maximal antagonist concentration per Method (A: 0.1, 1 or 2 μM; B: 50 μM); for Trypsin, % @ 50: @ 50 (μM). The protocol: as §1, §2, §3
Assay [3] concerns Thrombin-stimulated Ca2+ response in HT-29 cells. Put plainly: Ca FLIPR TETRA assay, ANTAGONIST mode, activator 1 U/mL Thrombin. As to conditions: for pIC50: HT-29 cells, activator 1 U/mL Thrombin. The protocol:
as §1, §2, §3

The subject of assay [4] is UTP-stimulated Ca2+ response in HT-29 cells. The assay can be described thus: Ca FLIPR TETRA assay, ANTAGONIST mode, activator 0.6 μM UTP. The following applies: HT-29 cells, activator 0.6 μM UTP. The protocol:
as §1, §2, §3

SMILES strings stand for the structures. pIC50: −log10 of the molar value.

`CCC(C)(C)C(=O)N1CCN(C(=O)c2cc3nc(-c4ccc(F)cc4)cc(C4(C)CC4)c3o2)C(C)(C)C1` [Example I-52]: the negative-log IC50 (pIC50) is 8.38 at PAR2 (HT-29 cells) [1], 8.22 at PAR2 (HT-29 cells) [2], below 4.30 in assay [3] (Homo sapiens) and below 4.30 in assay [4] (Homo sapiens).
With `CC1(c2cc(-c3ccc(F)cc3)nc3cc(C(=O)N4CCN(C(=O)C5(c6ccc(Cl)cc6)CC5)CC4(C)C)oc23)CC1` [Example I-53], the negative logarithm of the IC50 (pIC50) at PAR2 (HT-29 cells) [1] is 7.28; at PAR2 (HT-29 cells) [2], 7.13; in assay [3] (Homo sapiens), below 4.30; in assay [4] (Homo sapiens), below 4.30.
Regarding `CC1(c2cc(-c3ccc(F)cc3)nc3cc(C(=O)N4CCN(C(=O)C5CCOCC5)CC4(C)C)oc23)CC1` [Example I-54], the negative logarithm of the IC50 (pIC50) on PAR2 (HT-29 cells) [1] was 8.35; on PAR2 (HT-29 cells) [2] it was 8.20; in assay [3] (Homo sapiens), 5.02; in assay [4] (Homo sapiens) it was 5.10.
Taken in the same sequence, the figures for `CC1(c2cc(-c3ccc(F)cc3)nc3cc(C(=O)N4CCN(C(=O)C5(C(F)(F)F)CC5)CC4(C)C)oc23)CC1` [Example I-55] were 8.55, 8.34, 4.54 and below 4.48.
The corresponding values for `CC1(c2cc(-c3ccc(F)cc3)nc3cc(C(=O)N4CCN(C(=O)C5(O)CCC5)CC4(C)C)oc23)CC1` [Example I-56] are 7.80, 7.51, 5.05 and 5.28.
For the molecule `CC1(c2cc(-c3ccc(F)cc3)nc3cc(C(=O)N4CCN(C(=O)C5(O)CCOCC5)CC4(C)C)oc23)CC1` [Example I-57], the pIC50 was 7.28 at PAR2 (HT-29 cells) [1], 7.11 on PAR2 (HT-29 cells) [2], 5.17 in assay [3] (Homo sapiens) and 5.07 in assay [4] (Homo sapiens).
Regarding `CC1(c2cc(-c3ccc(F)cc3)nc3cc(C(=O)N4CCN(C(=O)C5CC(O)(C(F)(F)F)C5)CC4(C)C)oc23)CC1` (stereo not shown) [Example I-58], the pIC50 at PAR2 (HT-29 cells) [1] was 9.51; on PAR2 (HT-29 cells) [2] it was 9.19; in assay [3] (Homo sapiens) it was 4.72; in assay [4] (Homo sapiens), 4.52.
`CC[C@H](O)C(=O)N1CCN(C(=O)c2cc3nc(-c4ccc(F)cc4)cc(C4(C)CC4)c3o2)C(C)(C)C1` [Example I-59]: the pIC50 on PAR2 (HT-29 cells) [1] was 7.68; at PAR2 (HT-29 cells) [2] it was 7.31; in assay [3] (Homo sapiens) it was 4.82; in assay [4] (Homo sapiens) it was 4.82.
`CC1(c2cc(-c3ccc(F)cc3)nc3cc(C(=O)N4CCN(C(=O)C5CCOC5)CC4(C)C)oc23)CC1` (stereo not shown) [Example I-60]: the pIC50 was 7.32 at PAR2 (HT-29 cells) [1], 7.17 on PAR2 (HT-29 cells) [2], 4.85 in assay [3] and 4.89 in assay [4].
`CC[C@@H](O)C(=O)N1CCN(C(=O)c2cc3nc(-c4ccc(F)cc4)cc(C(C)C)c3o2)C(C)(C)C1` [Example I-61]: the pIC50 on PAR2 (HT-29 cells) [1] was 8.32; at PAR2 (HT-29 cells) [2], 7.96; in assay [3] (Homo sapiens), 4.77; in assay [4] (Homo sapiens), 4.89.
Taken in the same sequence, the figures for `CC(C)c1cc(-c2ccc(F)cc2)nc2cc(C(=O)N3CCN(C(=O)CC(C)(C)O)CC3(C)C)oc12` [Example I-62] were 7.40, 7.41, 5.33 and 5.28.
Taken in the same sequence, the figures for `CO[C@H](C)C(=O)N1CCN(C(=O)c2cc3nc(-c4ccc(F)cc4)cc(C(C)C)c3o2)C(C)(C)C1` [Example I-63] were 7.21, 6.96, 4.74 and 4.72.
Taken in the same sequence, the figures for `CC(C)c1cc(-c2ccc(F)cc2)nc2cc(C(=O)N3CCN(C(=O)C4CCCCO4)CC3(C)C)oc12` (stereo not shown) [Example I-64] were 8.35, 8.22, 4.52 and 4.68.
For `CC(C)c1cc(-c2ccc(F)cc2)nc2cc(C(=O)N3CCN(C(=O)c4ccn[nH]4)CC3(C)C)oc12` [Example I-65], the negative-log IC50 (pIC50) on PAR2 (HT-29 cells) [1] is 8.00; at PAR2 (HT-29 cells) [2] it was 7.80; in assay [3] (Homo sapiens), 5.57; in assay [4] (Homo sapiens), 5.55.
Turning to `CO[C@@H](C(=O)N1CCN(C(=O)c2cc3nc(-c4ccc(F)cc4)cc(C(C)C)c3o2)C(C)(C)C1)c1ccccc1` [Example I-66], the negative-log IC50 (pIC50) on PAR2 (HT-29 cells) [1] was 7.89; at PAR2 (HT-29 cells) [2], 7.82; in assay [3] (Homo sapiens) it was below 4.30; in assay [4] (Homo sapiens) it was below 4.30.
Turning to `CC(Oc1ccccc1)C(=O)N1CCN(C(=O)c2cc3nc(-c4ccc(F)cc4)cc(C(C)C)c3o2)C(C)(C)C1` (stereo not shown) [Example I-67], the pIC50 on PAR2 (HT-29 cells) [1] was 8.28; on PAR2 (HT-29 cells) [2] it was 8.13; in assay [3] (Homo sapiens) it was below 4.30; in assay [4] (Homo sapiens) it was below 4.30.
Regarding `CC(C)c1cc(-c2ccc(F)cc2)nc2cc(C(=O)N3CCN(C(=O)C(C)(O)C(F)(F)F)CC3(C)C)oc12` (stereo not shown) [Example I-68], the pIC50 was 8.00 on PAR2 (HT-29 cells) [1], 7.59 at PAR2 (HT-29 cells) [2], 4.54 in assay [3] (Homo sapiens) and 4.68 in assay [4] (Homo sapiens).
Take `CCC(O)(CC)C(=O)N1CCN(C(=O)c2cc3nc(-c4ccc(F)cc4)cc(C(C)C)c3o2)C(C)(C)C1` [Example I-69]: the pIC50 on PAR2 (HT-29 cells) [1] is 7.49; at PAR2 (HT-29 cells) [2], 7.28; in assay [3] (Homo sapiens), 4.43; in assay [4] (Homo sapiens), below 4.49.
Taken in the same sequence, the figures for `CC(C)c1cc(-c2ccc(F)cc2)nc2cc(C(=O)N3CCN(C(=O)C4(O)CC4)CC3(C)C)oc12` [Example I-70] were 7.77, 7.64, 4.82 and 4.80.
Taken in the same sequence, the figures for `CC(C)c1cc(-c2ccc(F)cc2)nc2cc(C(=O)N3CCN(C(=O)C4CCCC4)CC3(C)C)oc12` [Example I-71] were 8.59, 8.33, 4.46 and 4.44.
Taken in the same sequence, the figures for `CC(C)c1cc(-c2ccc(F)cc2)nc2cc(C(=O)N3CCN(C(=O)C4CC4(F)F)CC3(C)C)oc12` (stereo not shown) [Example I-72] were 8.64, 8.51, 4.85 and 4.89.
Regarding `CC(C)c1cc(-c2ccc(F)cc2)nc2cc(C(=O)N3CCN(C(=O)c4ccon4)CC3(C)C)oc12` [Example I-73], the negative-log IC50 (pIC50) on PAR2 (HT-29 cells) [1] is 8.62; on PAR2 (HT-29 cells) [2] it was 8.38; in assay [3] (Homo sapiens), 5.07; in assay [4] (Homo sapiens) it was 4.77.
As to `CC(C)c1cc(-c2ccc(F)cc2)nc2cc(C(=O)N3CCN(C(=O)[C@H](O)C(C)C)CC3(C)C)oc12` [Example I-74], the pIC50 at PAR2 (HT-29 cells) [1] was 8.28; on PAR2 (HT-29 cells) [2], 8.11; in assay [3] (Homo sapiens), 4.96; in assay [4] (Homo sapiens), 4.89.
Regarding `CC(C)c1cc(-c2ccc(F)cc2)nc2cc(C(=O)N3CCN(C(=O)[C@H]4CCCO4)CC3(C)C)oc12` [Example I-75], the pIC50 on PAR2 (HT-29 cells) [1] is 7.62; on PAR2 (HT-29 cells) [2], 6.85; in assay [3] (Homo sapiens), 4.51; in assay [4] (Homo sapiens), 4.64.
Regarding `CC(C)c1cc(-c2ccc(F)cc2)nc2cc(C(=O)N3CCN(C(=O)OC(C)(C)C)CC3)oc12` [Example I-77], the “SLIGKV, % @ 50” value on PAR2 (HT-29 cells) [1] was 64% @ 50. For the same molecule, the negative logarithm of the IC50 (pIC50) on PAR2 (HT-29 cells) [2] is 4.64; in assay [3] (Homo sapiens), below 4.30; in assay [4] (Homo sapiens) it was below 4.30.
For `CC(C)c1cc(-c2ccc(F)cc2)nc2cc(C(=O)N3CCN(C(=O)OC(C)(C)C)C[C@H]3C)oc12` [Example I-78], the “SLIGKV, % @ 50” value on PAR2 (HT-29 cells) [1] was determined as 70% @ 50. In addition, the “Trypsin, % @ 50” value at PAR2 (HT-29 cells) [2] came to 65% @ 50. Moreover, the pIC50 in assay [3] and in assay [4] was below 4.30 throughout.
Turning to `CC(C)c1cc(-c2ccc(F)cc2)nc2cc(C(=O)N3CCN(C(=O)OC(C)(C)C)C[C@@H]3C)oc12` [Example I-79], the results for the pIC50 (on PAR2 (HT-29 cells) [1]; in assay [4] (Homo sapiens)) were 5.77 and below 4.30, respectively. At PAR2 (HT-29 cells) [2], the “Trypsin, % @ 50” value stood at 60% @ 50. In addition, the “Thrombin, % @ 50” value in assay [3] (@ 50 (μM)) is recorded as 26% @ 50.
In the case of `CC(C)c1cc(-c2ccc(F)cc2)nc2cc(C(=O)N3CCN(C(=O)C4CCOC4)[C@@H](C)C3)oc12` (stereo partly shown) [Example I-80], the negative logarithm of the IC50 (pIC50) on PAR2 (HT-29 cells) [1] was 5.80; on PAR2 (HT-29 cells) [2], 5.33; in assay [3] (Homo sapiens) it was 4.72; in assay [4] (Homo sapiens), 4.70.

The values above are taken from patent US20180057505A1, “BICYCLIC HETEROARYL COMPOUNDS USEFUL AS INHIBITORS OF THE PAR-2 SIGNALING PATHWAY” (VERTEX PHARMACEUTICALS INCORPORATED, priority 2015, published 2018).
